Experimental findings from ChEMBL document CHEMBL1148204, “Isolation and structure assignments of rostratins A-D, cytotoxic disulfides produced by the marine-derived fungus Exserohilum rostratum” (J Nat Prod, 2004) are described below.

The structures appear in SMILES notation.

This assay concerns HCT-116. The experiment in a line: Cytotoxicity against human HCT116 cells. Format: functional, cell-based.
`O=C1N2[C@H]3[C@H](C[C@]24SS[C@]12C[C@H]1[C@@H]([C@@H](O)CC[C@@H]1O)N2C4=O)[C@@H](O)CC[C@@H]3O` [ROSTRATIN A]: the IC50 (commonly the concentration at which inhibition is half-maximal) came out at 9 µM.
To `O=C1CC[C@H](O)[C@H]2[C@@H]1C[C@@]13SS[C@]4(C[C@@H]5C(=O)CC[C@H](O)[C@@H]5N4C1=O)C(=O)N23` [ROSTRATIN B] belongs 4.4 µM; to `CO[C@H]1CC(=O)[C@H]2C[C@@]34SS[C@]5(C[C@@H]6C(=O)C[C@H](OC)[C@H](O)[C@@H]6N5C3=O)C(=O)N4[C@H]2[C@H]1O` [ROSTRATIN C], 1.6 µM.
Next, `O=C1C[C@@H](S)[C@H](O)[C@H]2[C@@H]1C[C@@]13SS[C@]4(C[C@@H]5C(=O)C[C@@H](S)[C@H](O)[C@@H]5N4C1=O)C(=O)N23` [ROSTRATIN D]: 35 µM.
